This is an account of results in patent publication US20230257385A1, “SALT AND SOLID FORMS OF TABERNANTHALOG” (priority 2021, published 2023).

This data set can be described thus: Heat-up/cool-down crystallisation screen of sorbate salt (Example 10, Experiments 5, 8). Conditions: Experiment 5; for Observations (t = 1 @ T = 20° C.): Tabernanthalog sorbate salt (Form A) crystallised from binary solvents, solvent A 3.0 vol plus solvent B, one pair per sample; for XRPD (oven dried @ 40° C., 20 h) / XRPD (centrifuged, wet): heat-up/cool-down crystallisation from binary solvents; for XRPD (centrifuged, wet): wet pellet. The format is physicochemical. The method, then:
The relevant solvent (0.225 ml, 3.0 vol) was added to the appropriate vial and the suspensions were stirred and warmed to temperature. If dissolution was not observed, further solvent was added until the solute dissolved, or aliquots of a secondary co-solvent were added to complete dissolution. Once dissolved, the solutions were left to cool down and stand undisturbed under sub-ambient conditions for several days. After crystallisation was judged complete, the products were isolated by centrifugation and the pellets were dried at 40° C. under reduced pressure. Products from the crystallisation (wet and dry) were initially analysed by XRPD (9-minute method), further analyses of certain products were performed by ^1H NMR, DSC and TGA, if the diffraction pattern indicated differences.

Consider `CC=CC=CC(=O)O.COc1ccc2c3c([nH]c2c1)CCN(C)CC3` [Experiment 5-Sample A], for which the “Observations (t = 1 @ T = 20° C.)” value was “Partial”; the “XRPD (oven dried @ 40° C., 20 h)” value is listed as “Form A”; the “XRPD (centrifuged, wet)” value is reported as “Form A”.

In the case of `CC=CC=CC(=O)O.COc1ccc2c3c([nH]c2c1)CCN(C)CC3` [Experiment 5-Sample B], the “Observations (t = 1 @ T = 20° C.)” value is on record as “Solid”; the “XRPD (oven dried @ 40° C., 20 h)” value is “Form A”; the “XRPD (centrifuged, wet)” value is “Form A”.

As for `C/C=C/C=C/C(=O)O.COc1ccc2c3c([nH]c2c1)CCN(C)CC3` [Experiment 5-Sample C], the “Observations (t = 1 @ T = 20° C.)” value is reported as “Solid”; the “XRPD (oven dried @ 40° C., 20 h)” value is listed as “Form A”; the “XRPD (centrifuged, wet)” value was “Form A”.

For the compound `C/C=C/C=C/C(=O)O.COc1ccc2c3c([nH]c2c1)CCN(C)CC3` [Experiment 5-Sample D], the “Observations (t = 1 @ T = 20° C.)” value was “Liquid”; the “XRPD (oven dried @ 40° C., 20 h)” value is on record as “Form A”; the “XRPD (centrifuged, wet)” value is on record as “Form A”.

As for `C/C=C/C=C/C(=O)O.COc1ccc2c3c([nH]c2c1)CCN(C)CC3` [Experiment 5-Sample E], the “Observations (t = 1 @ T = 20° C.)” value is reported as “Partial”; the “XRPD (oven dried @ 40° C., 20 h)” value is given as “Form A”; the “XRPD (centrifuged, wet)” value is recorded as “Form A”.

In the case of `C/C=C/C=C/C(=O)O.COc1ccc2c3c([nH]c2c1)CCN(C)CC3` [Experiment 5-Sample F], the “Observations (t = 1 @ T = 20° C.)” value is on record as “Partial”; the “XRPD (oven dried @ 40° C., 20 h)” value is reported as “Form A”; the “XRPD (centrifuged, wet)” value was “Form A”.

Consider `C/C=C/C=C/C(=O)O.COc1ccc2c3c([nH]c2c1)CCN(C)CC3` [Experiment 5-Sample G], for which the “Observations (t = 1 @ T = 20° C.)” value was “Partial”; the “XRPD (oven dried @ 40° C., 20 h)” value is reported as “Form A”; the “XRPD (centrifuged, wet)” value is “Pattern #6”.

As to `CC=CC=CC(=O)O.COc1ccc2c3c([nH]c2c1)CCN(C)CC3` [Experiment 5-Sample H], the “Observations (t = 1 @ T = 20° C.)” value is given as “Partial”; the “XRPD (oven dried @ 40° C., 20 h)” value is listed as “Form A”; the “XRPD (centrifuged, wet)” value was “Form A”.

Take `C/C=C/C=C/C(=O)O.COc1ccc2c3c([nH]c2c1)CCN(C)CC3` [Experiment 5-Sample I]: the “Observations (t = 1 @ T = 20° C.)” value is “Liquid”; the “XRPD (oven dried @ 40° C., 20 h)” value is given as “Form A”; the “XRPD (centrifuged, wet)” value was “Form A”.

For the compound `C/C=C/C=C/C(=O)O.COc1ccc2c3c([nH]c2c1)CCN(C)CC3` [Experiment 5-Sample J], the “Observations (t = 1 @ T = 20° C.)” value was “Partial”; the “XRPD (oven dried @ 40° C., 20 h)” value was “Form A”; the “XRPD (centrifuged, wet)” value was “Form A”.

As to `CC=CC=CC(=O)O.COc1ccc2c3c([nH]c2c1)CCN(C)CC3` [Experiment 5-Sample K], the “Observations (t = 1 @ T = 20° C.)” value is on record as “Partial”; the “XRPD (oven dried @ 40° C., 20 h)” value is listed as “Form A”; the “XRPD (centrifuged, wet)” value is reported as “Form A”.
